Assay [1] has as its system THP-1. Briefly: Antiinflammatory activity in human THP-1 monocytes assessed as decrease in IL-6 production incubated for 24 hrs by ELISA coupled qRT-PCR analysis. The assay is classed as functional, cell-based. The following applies: dose 1-10 µM. In general terms: An ELISA detects its analyte on a solid surface through an enzyme-linked reagent.
Assay [2] concerns THP-1. As to the kind of experiment: Antiinflammatory activity in human THP-1 monocytes assessed as increase in IL-10 production incubated for 24 hrs by ELISA coupled qRT-PCR analysis. The assay is classed as functional, cell-based. The following applies: dose 1-10 µM.
The subject of assay [3] is THP-1. As to the kind of experiment: Antiinflammatory activity in LPS-activated PMA-differentiated human THP-1 macrophages assessed as decrease in IFN-gamma production at 1 to 10 uM incubated for 24 hrs in the presence of JTE907 by ELISA coupled qRT-PCR analysis. Type of assay: functional, cell-based. The note with it: dose 1-10 µM.
The test system of assay [4] is THP-1. Briefly: Antiinflammatory activity in human THP-1 monocytes assessed as decrease in IL-1beta production incubated for 24 hrs by ELISA coupled qRT-PCR analysis. The assay is classed as functional, cell-based. The following applies: dose 1-10 µM.
For assay [5], the system named is THP-1. As to the kind of experiment: Antiinflammatory activity in human THP-1 monocytes assessed as decrease in TNF-alpha production at 1 to 10 uM incubated for 24 hrs in the presence of JTE907 by ELISA coupled qRT-PCR analysis. The assay is classed as functional, cell-based. The note with it: dose 1-10 µM.
The subject of assay [6] is THP-1. As to the kind of experiment: Antiinflammatory against LPS-activated human THP-1 monocytes assessed as decrease in IL-1beta production at 1 to 10 uM incubated for 24 hrs in the presence of JTE907 by ELISA coupled qRT-PCR analysis. Type of assay: functional, cell-based. The note with it: dose 1-10 µM.
Assay [7] has as its system THP-1. Briefly: Antiinflammatory against LPS-activated human THP-1 monocytes assessed as increase in IL-10 production at 1 to 10 uM incubated for 24 hrs in the presence of JTE907 by ELISA coupled qRT-PCR analysis. The assay is classed as functional, cell-based. The note with it: dose 1-10 µM.
The test system of assay [8] is THP-1. As to the kind of experiment: Antiinflammatory activity in human THP-1 monocytes assessed as increase in IL-4 production incubated for 24 hrs by ELISA coupled qRT-PCR analysis. Type of assay: functional, cell-based. The following applies: dose 1-10 µM.
For assay [9], the system named is THP-1. Briefly: Antiinflammatory activity in human THP-1 monocytes assessed as increase in IL-4 production at 1 to 10 uM incubated for 24 hrs in the presence of JTE907 by ELISA coupled qRT-PCR analysis. Type of assay: functional, cell-based. The note with it: dose 1-10 µM.
The test system of assay [10] is THP-1. Briefly: Antiinflammatory activity against LPS-activated PMA-differentiated human THP-1 macrophages assessed as decrease in TNF-alpha production at 1 to 10 uM incubated for 24 hrs by ELISA coupled qRT-PCR analysis relative to control. Also noted: scale not given: the % may be the effect or the level left. The following applies: dose 1-10 µM. Type of assay: functional.

The target in a further assay is Cannabinoid receptor 2 (Homo sapiens, UniProt P34972). Briefly: Agonist activity at human CB2 receptor expressed in CHO-K1 cells assessed as inhibition of NKH-477 induced cAMP production incubated for 30 mins by luminescence based analysis. Type of assay: functional, cell-based. (cAMP levels reflect the balance of adenylyl cyclase and phosphodiesterase activity.)

Assay [11] relates to THP-1. As to the kind of experiment: Antiinflammatory activity against LPS-activated PMA-differentiated human THP-1 macrophages assessed as decrease in IL-6 production at 1 to 10 uM incubated for 24 hrs by ELISA coupled qRT-PCR analysis relative to control. Type of assay: functional. The arrangement: scale not given: the % may be the effect or the level left. The note with it: dose 1-10 µM.

In assay [12] the test system is THP-1. As to the kind of experiment: Antiinflammatory against LPS-activated human THP-1 monocytes assessed as decrease in IFN-gamma production at 1 to 10 uM incubated for 24 hrs in the presence of JTE907 by ELISA coupled qRT-PCR analysis. The assay is classed as functional, cell-based. The note with it: dose 1-10 µM.
For assay [13], the system named is THP-1. As to the kind of experiment: Antiinflammatory activity in human THP-1 monocytes assessed as decrease in TNF-alpha production at 10 uM incubated for 24 hrs in the presence of JTE907 by ELISA coupled qRT-PCR analysis. Type of assay: functional, cell-based.
For assay [14], the system named is THP-1. Briefly: Antiinflammatory activity in human THP-1 monocytes assessed as decrease in IL-1beta production at 10 uM incubated for 24 hrs in the presence of N-(adamantan-1-yl)-4-(pentylamino)-[1,1'-biphenyl]-3-carboxamide by ELISA coupled qRT-PCR analysis. Type of assay: functional, cell-based.
Assay [15] deals with THP-1. As to the kind of experiment: Antiinflammatory activity against LPS-activated PMA-differentiated human THP-1 macrophages assessed as decrease in IFN-gamma production at 10 uM incubated for 24 hrs by ELISA coupled qRT-PCR analysis relative to control. The assay is classed as functional. Also noted: scale not given: the % may be the effect or the level left.
Assay [16] concerns THP-1. Briefly: Antiinflammatory activity in PMA-differentiated human THP-1 macrophages assessed as reduction in IFN-gamma production at 10 uM incubated for 24 hrs by ELISA coupled qRT-PCR analysis relative to control. The assay is classed as functional. The arrangement: scale not given: the % may be the effect or the level left.
The test system of assay [17] is THP-1. Briefly: Antiinflammatory against LPS-activated human THP-1 monocytes assessed as increase in IL-10 production at 10 uM incubated for 24 hrs in the presence of JTE907 by ELISA coupled qRT-PCR analysis. Type of assay: functional, cell-based.
The subject of assay [18] is THP-1. As to the kind of experiment: Antiinflammatory activity in human THP-1 monocytes assessed as decrease in IL-6 production at 10 uM incubated for 24 hrs in the presence of JTE907 by ELISA coupled qRT-PCR analysis. The assay is classed as functional, cell-based.
Assay [19] concerns THP-1. Briefly: Antiinflammatory activity in PMA-differentiated human THP-1 macrophages assessed as increase in IL-10 production at 10 uM incubated for 24 hrs in the presence of JTE907 by ELISA coupled qRT-PCR analysis. The assay is classed as functional, cell-based.
In assay [20] the test system is THP-1. Briefly: Antiinflammatory activity in PMA-differentiated human THP-1 monocytes assessed as increase in IL-10 production at 10 uM incubated for 24 hrs in the presence of N-(adamantan-1-yl)-4-(pentylamino)-[1,1'-biphenyl]-3-carboxamide by ELISA coupled qRT-PCR analysis. Type of assay: functional, cell-based.
Assay [21] concerns THP-1. As to the kind of experiment: Antiinflammatory activity against LPS-activated PMA-differentiated human THP-1 macrophages assessed as decrease in TNF-alpha production at 10 uM incubated for 24 hrs by ELISA coupled qRT-PCR analysis relative to control. Also noted: scale not given: the % may be the effect or the level left. Type of assay: functional.
For assay [22], the system named is THP-1. Briefly: Antiinflammatory against LPS-activated human THP-1 monocytes assessed as decrease in IFN-gamma production at 10 uM incubated for 24 hrs in the presence of JTE907 by ELISA coupled qRT-PCR analysis. The assay is classed as functional, cell-based.
The subject of assay [23] is THP-1. Briefly: Antiinflammatory activity against LPS-activated human THP-1 monocytes assessed as decrease in IL-1beta production at 10 uM incubated for 24 hrs in the presence of N-(adamantan-1-yl)-4-(pentylamino)-[1,1'-biphenyl]-3-carboxamide by ELISA coupled qRT-PCR analysis. The assay is classed as functional, cell-based.
Assay [24] relates to THP-1. Briefly: Antiinflammatory activity in PMA-differentiated human THP-1 monocytes assessed as decrease in TNF-alpha production at 10 uM incubated for 24 hrs in the presence of N-(adamantan-1-yl)-4-(pentylamino)-[1,1'-biphenyl]-3-carboxamide by ELISA coupled qRT-PCR analysis. The assay is classed as functional, cell-based.
Assay [25] deals with THP-1. Briefly: Antiinflammatory activity against LPS-activated PMA-differentiated human THP-1 monocytes assessed as decrease in IFN-gamma production at 10 uM incubated for 24 hrs in the presence of N-(adamantan-1-yl)-4-(pentylamino)-[1,1'-biphenyl]-3-carboxamide by ELISA coupled qRT-PCR analysis. The assay is classed as functional, cell-based.
In assay [26] the test system is THP-1. As to the kind of experiment: Antiinflammatory activity against LPS-activated human THP-1 monocytes assessed as increase in IL-10 production at 10 uM incubated for 24 hrs in the presence of N-(adamantan-1-yl)-4-(pentylamino)-[1,1'-biphenyl]-3-carboxamide by ELISA coupled qRT-PCR analysis. The assay is classed as functional, cell-based.
In assay [27] the test system is THP-1. Briefly: Antiinflammatory activity against LPS-activated human THP-1 monocytes assessed as decrease in TNF-alpha production at 10 uM incubated for 24 hrs in the presence of N-(adamantan-1-yl)-4-(pentylamino)-[1,1'-biphenyl]-3-carboxamide by ELISA coupled qRT-PCR analysis. Type of assay: functional, cell-based.

Active and inactive are the calls of the source. The rule behind the calls is not given here.

Chain of Cannabinoid receptor 2 (P34972 whole entry): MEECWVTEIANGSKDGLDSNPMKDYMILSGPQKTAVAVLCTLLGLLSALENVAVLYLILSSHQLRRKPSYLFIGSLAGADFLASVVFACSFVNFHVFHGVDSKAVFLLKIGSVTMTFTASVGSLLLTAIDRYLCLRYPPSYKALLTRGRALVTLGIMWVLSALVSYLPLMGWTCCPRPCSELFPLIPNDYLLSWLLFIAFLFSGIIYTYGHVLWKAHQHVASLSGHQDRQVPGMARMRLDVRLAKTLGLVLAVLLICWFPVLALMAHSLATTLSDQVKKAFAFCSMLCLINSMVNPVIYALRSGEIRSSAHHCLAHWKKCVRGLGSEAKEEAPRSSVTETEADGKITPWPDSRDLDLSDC

Usually EC50 stands for the concentration needed to bring the measured effect to its halfway point. Consider `CCCCCNc1ccccc1C(=O)NC12CC3CC(CC(C3)C1)C2`, for which the Activity result with THP-1 [1] is “Dose-Dependent Effect”; in the assay with THP-1 [2], “Dose-Dependent Effect”; with THP-1 [4], “Dose-Dependent Effect”; in the assay on THP-1 [8], “Dose-Dependent Effect”; in the assay on THP-1 [10], 70%; in the assay with THP-1 [11], 70%. Further, the result with THP-1 [3], in the assay on THP-1 [5], with THP-1 [6], in the assay with THP-1 [7], with THP-1 [9] and in the assay on THP-1 [12] was inactive. Also, on Cannabinoid receptor 2, the EC50 came out at 560 nM.
For the molecule `O=C(NC1CCCCC1)c1cn(CCN2CCOCC2)c2cc(Cl)ccc2c1=O`, the outcome in the assay with THP-1 [13], in the assay on THP-1 [14], in the assay on THP-1 [17], with THP-1 [18], in the assay with THP-1 [19] and in the assay on THP-1 [20] was inactive. In addition, the outcome in the assay on THP-1 [22], in the assay on THP-1 [23], in the assay on THP-1 [24], with THP-1 [25], with THP-1 [26] and with THP-1 [27] was inactive. Moreover, the Activity was found to be 70% in the assay on THP-1 [15], 50% in the assay with THP-1 [16] and 70% with THP-1 [21].

Source of the values: ChEMBL document CHEMBL5321210, “N-adamantyl-anthranil amide derivatives: New selective ligands for the cannabinoid receptor subtype 2 (CB2R)” (Eur J Med Chem, 2023).
